Source: ChEMBL document CHEMBL1201862, “PubChem BioAssay data set” (2004)
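Test compounds were applied to cells in 96-well plates for 48 hours at 5 doses. GI50 marks 50% less growth.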 The source made the active and inactive calls. Cut-off read from the data, not from the text of the source: active = GI50 up to about 1.1 µM and inactive = higher.

Key:
Test in all cases: NCI-60 cell line screen, 48 h
T47D = tested on: T47D
KM12 = tested on: KM12
MDA-N = tested on: MDA-N
OVCAR-4 = tested on: OVCAR-4
HL-60 = tested on: HL-60
U-251 = tested on: U-251
HT-29 = tested on: HT-29
OVCAR-8 = tested on: OVCAR-8
SK-OV-3 = tested on: SK-OV-3
NCI-H23 = tested on: NCI-H23
SF-539 = tested on: SF-539
SK-MEL-2 = tested on: SK-MEL-2
MDA-MB-435 = tested on: MDA-MB-435
NCI-H226 = tested on: NCI-H226
HCC 2998 = tested on: HCC 2998
SF-268 = tested on: SF-268
SK-MEL-28 = tested on: SK-MEL-28
HOP-18 = tested on: HOP-18
LOX IMVI = tested on: LOX IMVI
CAKI-1 = tested on: CAKI-1
SNB-78 = tested on: SNB-78
A549 = tested on: A549
HOP-62 = tested on: HOP-62
SW-620 = tested on: SW-620
DLD-1 = tested on: DLD-1
PC-3 = tested on: PC-3
UACC-62 = tested on: UACC-62
RXF 393 = tested on: RXF 393
HOP-92 = tested on: HOP-92
MDA-MB-231 = tested on: MDA-MB-231
K562 = tested on: K562
OVCAR-5 = tested on: OVCAR-5
KM-20L2 = tested on: KM-20L2
MCF7 = tested on: MCF7
DU-145 = tested on: DU-145
SNB-75 = tested on: SNB-75
DMS-273 = tested on: DMS-273
UACC-257 = tested on: UACC-257
NCI-H460 = tested on: NCI-H460
786-0 = tested on: 786-0
SR = tested on: SR
Malme-3M = tested on: Malme-3M
SK-MEL-5 = tested on: SK-MEL-5
SNB-19 = tested on: SNB-19
COLO 205 = tested on: COLO 205
Hs-578T = tested on: Hs-578T
RPMI-8226 = tested on: RPMI-8226
LXFL 529 = tested on: LXFL 529
BT-549 = tested on: BT-549
M14 = tested on: M14
NCI/ADR-RES = tested on: NCI/ADR-RES
SF-295 = tested on: SF-295
HCT-116 = tested on: HCT-116
MOLT-4 = tested on: MOLT-4
TK-10 = tested on: TK-10
ACHN = tested on: ACHN
SN12C = tested on: SN12C
HCT-15 = tested on: HCT-15
NCI-H522 = tested on: NCI-H522
EKVX = tested on: EKVX
XF498 = tested on: XF498
IGROV-1 = tested on: IGROV-1
CCRF-CEM = tested on: CCRF-CEM
OVCAR-3 = tested on: OVCAR-3
UO-31 = tested on: UO-31
A498 = tested on: A498

Q: What does the source list for `N=c1nc2n(cc1F)[C@@H]1O[C@H](CO)[C@@H](O)[C@@H]1O2`?
A: GI50 (T47D): 18.4 µM (inactive); GI50 (KM12): > 100 µM (inactive); GI50 (MDA-N): > 100 µM (inactive); GI50 (OVCAR-4): > 100 µM (inactive); GI50 (HL-60): 0.317 µM (active); GI50 (U-251): 24.8 µM (inactive); GI50 (HT-29): 34.4 µM (inactive); GI50 (OVCAR-8): 1.04 µM (active); GI50 (SK-OV-3): 8.55 µM (inactive); GI50 (NCI-H23): 2.29 µM (inactive); GI50 (SF-539): 53 µM (inactive); GI50 (SK-MEL-2): > 100 µM (inactive); GI50 (MDA-MB-435): 0.658 µM (active); GI50 (NCI-H226): 17.3 µM (inactive); GI50 (HCC 2998): > 56 µM (inactive); GI50 (SF-268): 4.22 µM (inactive); GI50 (SK-MEL-28): > 63.7 µM (inactive); GI50 (HOP-18): 13.4 µM (inactive); GI50 (LOX IMVI): 1.06 µM (active); GI50 (CAKI-1): 3.45 µM (inactive); GI50 (SNB-78): 62.2 µM (inactive); GI50 (A549): 0.335 µM (active); GI50 (HOP-62): 2.36 µM (inactive); GI50 (SW-620): > 20.5 µM (inactive); GI50 (DLD-1): 1.44 µM (inactive); GI50 (PC-3): > 100 µM (inactive); GI50 (UACC-62): > 92.5 µM (inactive); GI50 (RXF 393): > 40.7 µM (inactive); GI50 (HOP-92): 11.3 µM (inactive); GI50 (MDA-MB-231): > 100 µM (inactive); GI50 (K562): 4.33 µM (inactive); GI50 (OVCAR-5): > 100 µM (inactive); GI50 (KM-20L2): 2.99 µM (inactive); GI50 (MCF7): 1.14 µM (inactive); GI50 (DU-145): 0.971 µM (active); GI50 (SNB-75): > 70.6 µM (inactive); GI50 (DMS-273): 3.63 µM (inactive); GI50 (UACC-257): > 23.6 µM (inactive); GI50 (NCI-H460): 0.286 µM (active); GI50 (786-0): 4.46 µM (inactive); GI50 (SR): 0.424 µM (active); GI50 (Malme-3M): 9.42 µM (inactive); GI50 (SK-MEL-5): 35.4 µM (inactive); GI50 (SNB-19): > 92.9 µM (inactive); GI50 (COLO 205): 14 µM (inactive); GI50 (Hs-578T): > 100 µM (inactive); GI50 (RPMI-8226): 56.9 µM (inactive); GI50 (LXFL 529): > 26.5 µM (inactive); GI50 (BT-549): > 100 µM (inactive); GI50 (M14): 1.45 µM (inactive); GI50 (NCI/ADR-RES): 9.59 µM (inactive); GI50 (SF-295): 49.9 µM (inactive); GI50 (HCT-116): 1.31 µM (inactive); GI50 (MOLT-4): 0.0336 µM (active); GI50 (TK-10): > 75.5 µM (inactive); GI50 (ACHN): 2.12 µM (inactive); GI50 (SN12C): 14.4 µM (inactive); GI50 (HCT-15): > 90.2 µM; GI50 (NCI-H522): 4.18 µM (inactive); GI50 (EKVX): > 100 µM (inactive); GI50 (XF498): > 100 µM (inactive); GI50 (IGROV-1): 47.4 µM (inactive); GI50 (CCRF-CEM): < 0.0122 µM (active); GI50 (OVCAR-3): 9.1 µM (inactive); GI50 (UO-31): 24.6 µM (inactive); GI50 (A498): 13.4 µM (inactive)
